Entries after “also recorded” stand apart in the source; their conditions may differ.
Experiments:
Mcp-1 = Mcp-1 gene expression in PMA treated THP-1 cells (qRT-PCR); assay type: cell-based, human
Protocol: (§1) THP-1 (human leukemia monocyte cell line) cells were obtained from American Type Culture Collection (ATCC, Manassas, VA). THP-1 cells (200,000/well) were placed in six-well plates. After overnight incubation in serum free RPMI medium, cells were treated with 200 ng/ml of phorbol 12-myristate 13-acetate (PMA, Sigma-Aldrich, St. Louis, MO) to induce monocyte differentiation into macrophages. […] Cells were collected and RNA was isolated using miRNeasy kit (Qiagen).
(§2) PCR primers were purchased from Integrated DNA technologies (ITD, San Diego, USA). The miRNeasy Kit was used to isolate RNA (Qiagen, Germantown, MD, USA) according to the manufacturer's instructions. The iscript c-DNA synthesis kit (Bio-Rad, Hercules, CA, USA) was used to synthesize cDNA, and real-time qRT-PCR was done with the iTaq universal SYBR green super mix (Bio-Rad) using a C1000 thermal cycler with CFX96 real-time system (Bio-Rad). TBP-1 was used as a reference gene, and gene expression data was normalized to the respective control veins. The 2^−ΔΔct method was used to measure the fold change in gene expression.

THP-1 cells = experiment: CCR2, FABP4, IL8 and PPARγ gene expression in PMA treated THP-1 cells (qRT-PCR); assay type: cell-based, human; conditions: 200 ng/ml PMA, 300 μM BN or BN NP, 24 hours
Protocol: as §1, §2

With CCCCCCCCCCCCCC(=O)O[C@@H]1[C@@H](C)[C@@]2(O)[C@@H](C=C(CO)C[C@]3(O)C(=O)C(C)=C[C@@H]23)[C@@H]2C(C)(C)[C@]12OC(C)=O [PMA, phorbol 12-myristate 13-acetate] the “average Mcp-1 gene expression” value (Mcp-1; 200 ng/ml PMA with or without 300 μM BN or BN NP, 24 hours, fold change) was 9.77±1.58, the “average increase of Mcp-1 gene expression” value (Mcp-1; PMA compared to NP C alone) was 859.13% and the CCR2 gene expression (THP-1 cells) was “significantly increased; also recorded: induced”. For the same molecule, the FABP4 gene expression (THP-1 cells) was “significantly increased; also recorded: induced”, the IL8 gene expression (THP-1 cells) was “significantly increased; also recorded: induced” and the PPARγ gene expression (THP-1 cells) was “significantly increased; also recorded: induced”.
